Literature values in patent US11116842B2, “Methylene blue complex for treating skin disease and its use thereof” (D. R. NANO Co., Ltd., priority 2017, dated 2021).

System: skin disease such as acne
Settings: for side effect in a long-term application: background art

Row | SMILES | side effect in a long-term application | Light protection time after operation (prior-art photosensitizers) | Treatment effect (prior-art photosensitizers)
1 | NCC(=O)CCC(=O)O [ALA, 5-aminolevulinic acid] | xeroderma | T > 30 hr | strong
2 | COC(=O)CCC(=O)CN [MAL, Methyl-aminolevulinate] | xeroderma |  | 
